Here are results for 12 molecules from ChEMBL document CHEMBL1140819, “Protected aminooxyprolines for expedited library synthesis: application to Tsg101-directed proline-oxime containing peptides” (Bioorg Med Chem Lett, 2008).

*1 amine or outer side, *2 acyl side, *3 side chain or, on linkers, in order; H or OH if unused. Where a SMILES comes first, the peptide text is derived from it. [ ]: non-standard residue; d: D form. The star is where a group is joined. ξ: configuration not given here. Fluorescein(5-NHCS) = O=C1OC2(c3ccc(O)cc3Oc3cc(O)ccc32)c2cc(NC(=S)*)ccc21; X10 = O=C([C@@H]1C[C@H](O/N=C\c2c(F)c(F)c(F)c(F)c2F)CN1[*:1])[*:2]; X5 = CC(/C=N\O[C@@H]1C[C@@H](C(=O)[*:2])N([*:1])C1)=C\c1ccccc1; X36 = CC(/C=N\O[C@H]1CCN([*:1])[C@@H]1C(=O)[*:2])=C\c1ccccc1; X16 = COc1ccc(/C=N\O[C@H]2CCN([*:1])[C@@H]2C(=O)[*:2])cc1O; X14 = CCCCCCCC/C=N\O[C@@H]1C[C@@H](C(=O)[*:2])N([*:1])C1; X26 = O=C([C@@H]1C[C@@H](O/N=C\CCc2ccccc2)CN1[*:1])[*:2]; X42 = O=C([C@@H]1[C@@H](O/N=C\CCc2ccccc2)CCN1[*:1])[*:2]; X46 = O=C([C@@H]1C[C@H](O/N=C\CCc2ccccc2)CN1[*:1])[*:2]; X24 = O=C([C@@H]1[C@@H](O/N=C\c2ccccc2)CCN1[*:1])[*:2]; X20 = O=C(O)CC/C=N\O[C@H]1CCN([*:1])[C@@H]1C(=O)[*:2]; X44 = O=C([C@@H]1[C@@H](O/N=C\c2ccoc2)CCN1[*:1])[*:2]; X35 = O=C([C@@H]1C[C@H](O/N=C\c2ccoc2)CN1[*:1])[*:2]; ξPip = O=C(O)C1CCCCN1; Ava = NCCCCC(=O)O

What is called IC50 is the concentration that inhibits the measured activity by half. Low values mean higher potency, high ones lower potency.

In this test the target is T1, Tumor susceptibility gene 101 protein (Homo sapiens, UniProt Q99816).
T1 sequence (Q99816 whole entry): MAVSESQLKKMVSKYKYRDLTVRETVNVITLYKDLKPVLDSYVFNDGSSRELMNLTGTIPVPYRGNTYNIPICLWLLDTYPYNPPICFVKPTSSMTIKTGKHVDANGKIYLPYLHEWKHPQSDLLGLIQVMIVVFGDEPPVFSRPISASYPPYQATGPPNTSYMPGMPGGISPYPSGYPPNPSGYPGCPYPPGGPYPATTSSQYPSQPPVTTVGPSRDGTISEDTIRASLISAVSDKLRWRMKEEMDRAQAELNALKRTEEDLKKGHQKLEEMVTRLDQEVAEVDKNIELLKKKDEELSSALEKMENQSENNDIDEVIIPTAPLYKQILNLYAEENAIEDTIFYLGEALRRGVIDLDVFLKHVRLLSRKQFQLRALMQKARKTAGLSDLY
As to the kind of experiment: Binding affinity to Tsg101.
Take `C[C@H](NC(=O)[C@@H](NC(=O)[C@@H]1CCCN1C(=O)[C@H](CCC(=O)O)NC(=O)[C@@H]1CCCN1C(=O)CCCCNC(=S)Nc1ccc2c(c1)C1(OC2=O)c2ccc(O)cc2Oc2cc(O)ccc21)[C@@H](C)O)C(=O)N1CCCCC1C(=O)N1CC[C@H](O/N=C\CCc2ccccc2)[C@H]1C(=O)N[C@@H](CCC(=O)O)C(=O)N[C@@H](CCC(=O)O)C(N)=O` (some centres not stated) ({Fluorescein(5-NHCS)-Ava}-PEPTA[ξPip][X42]EE-NH2): the IC50 was found to be 20 µM. Take `C[C@H](NC(=O)[C@@H](NC(=O)[C@@H]1CCCN1C(=O)[C@H](CCC(=O)O)NC(=O)[C@@H]1CCCN1C(=O)CCCCNC(=S)Nc1ccc2c(c1)C1(OC2=O)c2ccc(O)cc2Oc2cc(O)ccc21)[C@@H](C)O)C(=O)N1CCCCC1C(=O)N1C[C@H](O/N=C\CCc2ccccc2)C[C@H]1C(=O)N[C@@H](CCC(=O)O)C(=O)N[C@@H](CCC(=O)O)C(N)=O` (some centres not stated) ({Fluorescein(5-NHCS)-Ava}-PEPTA[ξPip][X26]EE-NH2): the 50% inhibitory concentration (IC50) came out at 26 µM. The result for `COc1ccc(/C=N\O[C@H]2CCN(C(=O)C3CCCCN3C(=O)[C@H](C)NC(=O)[C@@H](NC(=O)[C@@H]3CCCN3C(=O)[C@H](CCC(=O)O)NC(=O)[C@@H]3CCCN3C(=O)CCCCNC(=S)Nc3ccc4c(c3)C3(OC4=O)c4ccc(O)cc4Oc4cc(O)ccc43)[C@@H](C)O)[C@@H]2C(=O)N[C@@H](CCC(=O)O)C(=O)N[C@@H](CCC(=O)O)C(N)=O)cc1O` (some centres not stated) ({Fluorescein(5-NHCS)-Ava}-PEPTA[ξPip][X16]EE-NH2) reads 13 µM. `C[C@H](NC(=O)[C@@H](NC(=O)[C@@H]1CCCN1C(=O)[C@H](CCC(=O)O)NC(=O)[C@@H]1CCCN1C(=O)CCCCNC(=S)Nc1ccc2c(c1)C1(OC2=O)c2ccc(O)cc2Oc2cc(O)ccc21)[C@@H](C)O)C(=O)N1CCCCC1C(=O)N1CC[C@H](O/N=C\CCC(=O)O)[C@H]1C(=O)N[C@@H](CCC(=O)O)C(=O)N[C@@H](CCC(=O)O)C(N)=O` (some centres not stated) ({Fluorescein(5-NHCS)-Ava}-PEPTA[ξPip][X20]EE-NH2) gave an IC50 of 16 µM.

In turn, `CC(/C=N\O[C@H]1CCN(C(=O)C2CCCCN2C(=O)[C@H](C)NC(=O)[C@@H](NC(=O)[C@@H]2CCCN2C(=O)[C@H](CCC(=O)O)NC(=O)[C@@H]2CCCN2C(=O)CCCCNC(=S)Nc2ccc3c(c2)C2(OC3=O)c3ccc(O)cc3Oc3cc(O)ccc32)[C@@H](C)O)[C@@H]1C(=O)N[C@@H](CCC(=O)O)C(=O)N[C@@H](CCC(=O)O)C(N)=O)=C\c1ccccc1` (some centres not stated) ({Fluorescein(5-NHCS)-Ava}-PEPTA[ξPip][X36]EE-NH2) yielded an IC50 of 12 µM. The molecule `C[C@H](NC(=O)[C@@H](NC(=O)[C@@H]1CCCN1C(=O)[C@H](CCC(=O)O)NC(=O)[C@@H]1CCCN1C(=O)CCCCNC(=S)Nc1ccc2c(c1)C1(OC2=O)c2ccc(O)cc2Oc2cc(O)ccc21)[C@@H](C)O)C(=O)N1CCCCC1C(=O)N1CC[C@H](O/N=C\c2ccoc2)[C@H]1C(=O)N[C@@H](CCC(=O)O)C(=O)N[C@@H](CCC(=O)O)C(N)=O` (some centres not stated) ({Fluorescein(5-NHCS)-Ava}-PEPTA[ξPip][X44]EE-NH2) registered a half-inhibitory concentration (IC50) of 20 µM. The result for `CCCCCCCC/C=N\O[C@@H]1C[C@@H](C(=O)N[C@@H](CCC(=O)O)C(=O)N[C@@H](CCC(=O)O)C(N)=O)N(C(=O)C2CCCCN2C(=O)[C@H](C)NC(=O)[C@@H](NC(=O)[C@@H]2CCCN2C(=O)[C@H](CCC(=O)O)NC(=O)[C@@H]2CCCN2C(=O)CCCCNC(=S)Nc2ccc3c(c2)C2(OC3=O)c3ccc(O)cc3Oc3cc(O)ccc32)[C@@H](C)O)C1` (some centres not stated) ({Fluorescein(5-NHCS)-Ava}-PEPTA[ξPip][X14]EE-NH2) reads 54 µM.

`C[C@H](NC(=O)[C@@H](NC(=O)[C@@H]1CCCN1C(=O)[C@H](CCC(=O)O)NC(=O)[C@@H]1CCCN1C(=O)CCCCNC(=S)Nc1ccc2c(c1)C1(OC2=O)c2ccc(O)cc2Oc2cc(O)ccc21)[C@@H](C)O)C(=O)N1CCCCC1C(=O)N1C[C@@H](O/N=C\CCc2ccccc2)C[C@H]1C(=O)N[C@@H](CCC(=O)O)C(=O)N[C@@H](CCC(=O)O)C(N)=O` (some centres not stated) ({Fluorescein(5-NHCS)-Ava}-PEPTA[ξPip][X46]EE-NH2) returned an IC50 of 83 µM.

`C[C@H](NC(=O)[C@@H](NC(=O)[C@@H]1CCCN1C(=O)[C@H](CCC(=O)O)NC(=O)[C@@H]1CCCN1C(=O)CCCCNC(=S)Nc1ccc2c(c1)C1(OC2=O)c2ccc(O)cc2Oc2cc(O)ccc21)[C@@H](C)O)C(=O)N1CCCCC1C(=O)N1C[C@@H](O/N=C\c2c(F)c(F)c(F)c(F)c2F)C[C@H]1C(=O)N[C@@H](CCC(=O)O)C(=O)N[C@@H](CCC(=O)O)C(N)=O` (some centres not stated) ({Fluorescein(5-NHCS)-Ava}-PEPTA[ξPip][X10]EE-NH2): the 50% inhibitory concentration (IC50) amounted to 139 µM. The result for `C[C@H](NC(=O)[C@@H](NC(=O)[C@@H]1CCCN1C(=O)[C@H](CCC(=O)O)NC(=O)[C@@H]1CCCN1C(=O)CCCCNC(=S)Nc1ccc2c(c1)C1(OC2=O)c2ccc(O)cc2Oc2cc(O)ccc21)[C@@H](C)O)C(=O)N1CCCCC1C(=O)N1CC[C@H](O/N=C\c2ccccc2)[C@H]1C(=O)N[C@@H](CCC(=O)O)C(=O)N[C@@H](CCC(=O)O)C(N)=O` (some centres not stated) ({Fluorescein(5-NHCS)-Ava}-PEPTA[ξPip][X24]EE-NH2) reads 15 µM.

Molecule `C[C@H](NC(=O)[C@@H](NC(=O)[C@@H]1CCCN1C(=O)[C@H](CCC(=O)O)NC(=O)[C@@H]1CCCN1C(=O)CCCCNC(=S)Nc1ccc2c(c1)C1(OC2=O)c2ccc(O)cc2Oc2cc(O)ccc21)[C@@H](C)O)C(=O)N1CCCCC1C(=O)N1C[C@@H](O/N=C\c2ccoc2)C[C@H]1C(=O)N[C@@H](CCC(=O)O)C(=O)N[C@@H](CCC(=O)O)C(N)=O` (some centres not stated) ({Fluorescein(5-NHCS)-Ava}-PEPTA[ξPip][X35]EE-NH2) came in with an IC50 of 48 µM. With `CC(/C=N\O[C@@H]1C[C@@H](C(=O)N[C@@H](CCC(=O)O)C(=O)N[C@@H](CCC(=O)O)C(N)=O)N(C(=O)C2CCCCN2C(=O)[C@H](C)NC(=O)[C@@H](NC(=O)[C@@H]2CCCN2C(=O)[C@H](CCC(=O)O)NC(=O)[C@@H]2CCCN2C(=O)CCCCNC(=S)Nc2ccc3c(c2)C2(OC3=O)c3ccc(O)cc3Oc3cc(O)ccc32)[C@@H](C)O)C1)=C\c1ccccc1` (some centres not stated) ({Fluorescein(5-NHCS)-Ava}-PEPTA[ξPip][X5]EE-NH2), the IC50 worked out at 13 µM.
